Measured values taken from ChEMBL document CHEMBL4024727, “Synthesis and antimycobacterial screening of new thiazolyl-oxazole derivatives” (Eur J Med Chem, 2017).
pIC50: −log10 of the molar value.

What follows are compounds tested on Bacillus subtilis (assay: Growth inhibition of Bacillus subtilis NCIM 2162 at 1 ug/ml measured after 12 hrs relative to control). Conditions: NCIM 2162, 12 h, read-out: GI.
Format: functional

Row | SMILES | inhibition of growth at 1 µg/mL
1 | Cc1nc(-c2ccc(F)cc2)oc1-c1csc(-c2cccc(Cl)c2)n1 | 28.8%
2 | Cc1nc(-c2ccccc2)oc1-c1csc(-c2ccc(F)c(Cl)c2)n1 | 62%

The compounds below were run on Staphylococcus aureus (assay: Growth inhibition of Staphylococcus aureus NCIM 2602 at 30 ug/ml measured after 12 hrs relative to control). Conditions: NCIM 2602, 12 h, read-out: GI.
Format: functional

Row | SMILES | inhibition of growth at 30 µg/mL
3 | Cc1nc(-c2ccc(F)cc2)oc1-c1csc(-c2cccc(Cl)c2)n1 | 48.1%
4 | Cc1nc(-c2ccccc2)oc1-c1csc(-c2ccc(F)c(Cl)c2)n1 | 88.5%

The compounds below were run on Escherichia coli (assay: Growth inhibition of Escherichia coli NCIM 2576 at 10 ug/ml measured after 8 hrs relative to control). Conditions: NCIM 2576, 8 h, read-out: GI.
Format: functional

Row | SMILES | inhibition of growth at 10 µg/mL
5 | Cc1nc(-c2ccc(F)cc2)oc1-c1csc(-c2cccc(Cl)c2)n1 | 40.5%
6 | Cc1nc(-c2ccccc2)oc1-c1csc(-c2ccc(F)c(Cl)c2)n1 | 74.3%

The compounds below were run on Mycobacterium tuberculosis (assay: Antitubercular activity against Mycobacterium bovis BCG ATCC 35743 dormant stage by nitrate reductase based two-fold dilution assay). Conditions: BCG str. ATCC 35743.
Format: functional

Row | SMILES | pIC50 | MIC90
7 | Cc1nc(-c2ccc(F)cc2)oc1-c1csc(-c2cccc(Cl)c2)n1 | < 4.00 | > 100 µM
8 | Cc1nc(-c2ccccc2)oc1-c1csc(-c2ccc(F)c(Cl)c2)n1 | < 4.00 | > 100 µM

What follows are compounds tested on Escherichia coli (assay: Growth inhibition of Escherichia coli NCIM 2576 at 1 ug/ml measured after 8 hrs relative to control). Conditions: NCIM 2576, 8 h, read-out: GI.
Format: functional

Row | SMILES | inhibition of growth at 1 µg/mL
9 | Cc1nc(-c2ccc(F)cc2)oc1-c1csc(-c2cccc(Cl)c2)n1 | 23.4%
10 | Cc1nc(-c2ccccc2)oc1-c1csc(-c2ccc(F)c(Cl)c2)n1 | 65%

These compounds were tested on Mycobacterium tuberculosis (assay: Growth inhibition of Mycobacterium bovis BCG ATCC 35743 at 10 ug/ml by nitrate reductase based two-fold dilution assay relative to control). Conditions: BCG str. ATCC 35743, read-out: GI.
Format: functional

Row | SMILES | inhibition of growth at 10 µg/mL
11 | Cc1nc(-c2ccc(F)cc2)oc1-c1csc(-c2cccc(Cl)c2)n1 | 24%
12 | Cc1nc(-c2ccccc2)oc1-c1csc(-c2ccc(F)c(Cl)c2)n1 | 33%

The compounds below were run on Mycobacterium tuberculosis (assay: Antitubercular activity against Mycobacterium tuberculosis H37Ra ATCC 25177 dormant stage by XTT dye based two-fold dilution method). Conditions: not given.
Format: functional

Row | SMILES | pIC50 | MIC90
13 | Cc1nc(-c2ccc(F)cc2)oc1-c1csc(-c2cccc(Cl)c2)n1 | < 4.00 | > 100 µM
14 | Cc1nc(-c2ccccc2)oc1-c1csc(-c2ccc(F)c(Cl)c2)n1 | < 4.00 | > 100 µM

Each compound was assayed on Escherichia coli (assay: Growth inhibition of Escherichia coli NCIM 2576 at 30 ug/ml measured after 8 hrs relative to control). Conditions: NCIM 2576, 8 h, read-out: GI.
Format: functional

Row | SMILES | inhibition of growth at 30 µg/mL
15 | Cc1nc(-c2ccc(F)cc2)oc1-c1csc(-c2cccc(Cl)c2)n1 | 49.5%
16 | Cc1nc(-c2ccccc2)oc1-c1csc(-c2ccc(F)c(Cl)c2)n1 | 88%

What follows are compounds tested on Mycobacterium tuberculosis (assay: Growth inhibition of Mycobacterium bovis BCG ATCC 35743 at 30 ug/ml by nitrate reductase based two-fold dilution assay relative to control). Conditions: BCG str. ATCC 35743, read-out: GI.
Format: functional

Row | SMILES | inhibition of growth at 30 µg/mL
17 | Cc1nc(-c2ccc(F)cc2)oc1-c1csc(-c2cccc(Cl)c2)n1 | 32%
18 | Cc1nc(-c2ccccc2)oc1-c1csc(-c2ccc(F)c(Cl)c2)n1 | 34%

These compounds were tested on Mycobacterium tuberculosis (assay: Growth inhibition of Mycobacterium bovis BCG ATCC 35743 at 1 ug/ml by nitrate reductase based two-fold dilution assay relative to control). Conditions: BCG str. ATCC 35743, read-out: GI.
Format: functional

Row | SMILES | inhibition of growth at 1 µg/mL
19 | Cc1nc(-c2ccc(F)cc2)oc1-c1csc(-c2cccc(Cl)c2)n1 | 23%
20 | Cc1nc(-c2ccccc2)oc1-c1csc(-c2ccc(F)c(Cl)c2)n1 | 16%

The compounds below were run on Bacillus subtilis (assay: Growth inhibition of Bacillus subtilis NCIM 2162 at 30 ug/ml measured after 12 hrs relative to control). Conditions: NCIM 2162, 12 h, read-out: GI.
Format: functional

Row | SMILES | inhibition of growth at 30 µg/mL
21 | Cc1nc(-c2ccc(F)cc2)oc1-c1csc(-c2cccc(Cl)c2)n1 | 50.8%
22 | Cc1nc(-c2ccccc2)oc1-c1csc(-c2ccc(F)c(Cl)c2)n1 | 85.6%

Each compound was assayed on Bacillus subtilis (assay: Antibacterial activity against Bacillus subtilis NCIM 2162 measured after 12 hrs). Conditions: NCIM 2162, 12 h.
Format: functional

Row | SMILES | MIC
23 | Cc1nc(-c2ccc(F)cc2)oc1-c1csc(-c2cccc(Cl)c2)n1 | > 100 µM
24 | Cc1nc(-c2ccccc2)oc1-c1csc(-c2ccc(F)c(Cl)c2)n1 | > 100 µM

What follows are compounds tested on Staphylococcus aureus (assay: Growth inhibition of Staphylococcus aureus NCIM 2602 at 10 ug/ml measured after 12 hrs relative to control). Conditions: NCIM 2602, 12 h, read-out: GI.
Format: functional

Row | SMILES | inhibition of growth at 10 µg/mL
25 | Cc1nc(-c2ccc(F)cc2)oc1-c1csc(-c2cccc(Cl)c2)n1 | 35.7%
26 | Cc1nc(-c2ccccc2)oc1-c1csc(-c2ccc(F)c(Cl)c2)n1 | 80%

The compounds below were run on Escherichia coli (assay: Antibacterial activity against Escherichia coli NCIM 2576 measured after 8 hrs). Conditions: NCIM 2576, 8 h.
Format: functional

Row | SMILES | MIC
27 | Cc1nc(-c2ccc(F)cc2)oc1-c1csc(-c2cccc(Cl)c2)n1 | > 100 µM
28 | Cc1nc(-c2ccccc2)oc1-c1csc(-c2ccc(F)c(Cl)c2)n1 | > 100 µM

These compounds were tested on Staphylococcus aureus (assay: Antibacterial activity against Staphylococcus aureus NCIM 2602 measured after 12 hrs). Conditions: NCIM 2602, 12 h.
Format: functional

Row | SMILES | MIC
29 | Cc1nc(-c2ccc(F)cc2)oc1-c1csc(-c2cccc(Cl)c2)n1 | > 100 µM
30 | Cc1nc(-c2ccccc2)oc1-c1csc(-c2ccc(F)c(Cl)c2)n1 | > 100 µM

The compounds below were run on Mycobacterium tuberculosis (assay: Growth inhibition of Mycobacterium tuberculosis H37Ra ATCC 25177 at 3 ug/ml by XTT dye based two-fold dilution method relative to control). Conditions: read-out: GI.
Format: functional

Row | SMILES | inhibition of growth at 3 µg/mL
31 | Cc1nc(-c2ccc(F)cc2)oc1-c1csc(-c2cccc(Cl)c2)n1 | 29%
32 | Cc1nc(-c2ccccc2)oc1-c1csc(-c2ccc(F)c(Cl)c2)n1 | 19%

Each compound was assayed on Mycobacterium tuberculosis (assay: Growth inhibition of Mycobacterium tuberculosis H37Ra ATCC 25177 at 30 ug/ml by XTT dye based two-fold dilution method relative to control). Conditions: read-out: GI.
Format: functional

Row | SMILES | inhibition of growth at 30 µg/mL
33 | Cc1nc(-c2ccc(F)cc2)oc1-c1csc(-c2cccc(Cl)c2)n1 | 32%
34 | Cc1nc(-c2ccccc2)oc1-c1csc(-c2ccc(F)c(Cl)c2)n1 | 30%

The compounds below were run on Staphylococcus aureus (assay: Growth inhibition of Staphylococcus aureus NCIM 2602 at 1 ug/ml measured after 12 hrs relative to control). Conditions: NCIM 2602, 12 h, read-out: GI.
Format: functional

Row | SMILES | inhibition of growth at 1 µg/mL
35 | Cc1nc(-c2ccc(F)cc2)oc1-c1csc(-c2cccc(Cl)c2)n1 | 28.5%
36 | Cc1nc(-c2ccccc2)oc1-c1csc(-c2ccc(F)c(Cl)c2)n1 | 70.9%

What follows are compounds tested on Mycobacterium tuberculosis (assay: Growth inhibition of Mycobacterium tuberculosis H37Ra ATCC 25177 at 10 ug/ml by XTT dye based two-fold dilution method relative to control). Conditions: read-out: GI.
Format: functional

Row | SMILES | inhibition of growth at 10 µg/mL
37 | Cc1nc(-c2ccc(F)cc2)oc1-c1csc(-c2cccc(Cl)c2)n1 | 29%
38 | Cc1nc(-c2ccccc2)oc1-c1csc(-c2ccc(F)c(Cl)c2)n1 | 21%

The compounds below were run on Pseudomonas fluorescens (assay: Antibacterial activity against Pseudomonas fluorescens NCIM 2059 measured after 8 hrs). Conditions: NCIM 2059, 8 h.
Format: functional

Row | SMILES | MIC
39 | Cc1nc(-c2ccc(F)cc2)oc1-c1csc(-c2cccc(Cl)c2)n1 | > 100 µM
40 | Cc1nc(-c2ccccc2)oc1-c1csc(-c2ccc(F)c(Cl)c2)n1 | > 100 µM

These compounds were tested on Bacillus subtilis (assay: Growth inhibition of Bacillus subtilis NCIM 2162 at 10 ug/ml measured after 12 hrs relative to control). Conditions: NCIM 2162, 12 h, read-out: GI.
Format: functional

Row | SMILES | inhibition of growth at 10 µg/mL
41 | Cc1nc(-c2ccc(F)cc2)oc1-c1csc(-c2cccc(Cl)c2)n1 | 40.6%
42 | Cc1nc(-c2ccccc2)oc1-c1csc(-c2ccc(F)c(Cl)c2)n1 | 80.8%

The compounds below were run on Pseudomonas fluorescens (assay: Growth inhibition of Pseudomonas fluorescens NCIM 2059 at 10 ug/ml measured after 8 hrs relative to control). Conditions: NCIM 2059, 8 h, read-out: GI.
Format: functional

Row | SMILES | inhibition of growth at 10 µg/mL
43 | Cc1nc(-c2ccc(F)cc2)oc1-c1csc(-c2cccc(Cl)c2)n1 | 38.3%
44 | Cc1nc(-c2ccccc2)oc1-c1csc(-c2ccc(F)c(Cl)c2)n1 | 77.1%

The compounds below were run on Pseudomonas fluorescens (assay: Growth inhibition of Pseudomonas fluorescens NCIM 2059 at 30 ug/ml measured after 8 hrs relative to control). Conditions: NCIM 2059, 8 h, read-out: GI.
Format: functional

Row | SMILES | inhibition of growth at 30 µg/mL
45 | Cc1nc(-c2ccc(F)cc2)oc1-c1csc(-c2cccc(Cl)c2)n1 | 48.3%
46 | Cc1nc(-c2ccccc2)oc1-c1csc(-c2ccc(F)c(Cl)c2)n1 | 89.6%

Each compound was assayed on Pseudomonas fluorescens (assay: Growth inhibition of Pseudomonas fluorescens NCIM 2059 at 1 ug/ml measured after 8 hrs relative to control). Conditions: NCIM 2059, 8 h, read-out: GI.
Format: functional

Row | SMILES | inhibition of growth at 1 µg/mL
47 | Cc1nc(-c2ccc(F)cc2)oc1-c1csc(-c2cccc(Cl)c2)n1 | 24.8%
48 | Cc1nc(-c2ccccc2)oc1-c1csc(-c2ccc(F)c(Cl)c2)n1 | 69.8%
